Laboratory results taken from article PMC7136958, “Targeting the pregnane X receptor using microbial metabolite mimicry” (EMBO Molecular Medicine, 2020).
“And” between values parts separate entries of the source, which are not always exact repeats. Identical values can stand only once.

Assays:
rats = test system: rats; parameters: method as in Thermo Fisher Scientific Safety Sheet data; conditions: oral in rats; ref Thermo Fisher Scientific Safety Sheet data; cited from earlier work
AhR = molecular target: T1, AhR (Homo sapiens, UniProt P35869); experiment: AhR reporter assay, HepG2 cells stably expressing pCYP1A1 luciferase (AZ-AHR); format: cell-based; conditions: for FOLD INDUCTION (AZ-AHR luciferase): AZ-AHR cells, fold vs DMSO
T1 construct: endogenous in cells; host or cells: AZ-AHR (HepG2)
T1 sequence (P35869 11-848): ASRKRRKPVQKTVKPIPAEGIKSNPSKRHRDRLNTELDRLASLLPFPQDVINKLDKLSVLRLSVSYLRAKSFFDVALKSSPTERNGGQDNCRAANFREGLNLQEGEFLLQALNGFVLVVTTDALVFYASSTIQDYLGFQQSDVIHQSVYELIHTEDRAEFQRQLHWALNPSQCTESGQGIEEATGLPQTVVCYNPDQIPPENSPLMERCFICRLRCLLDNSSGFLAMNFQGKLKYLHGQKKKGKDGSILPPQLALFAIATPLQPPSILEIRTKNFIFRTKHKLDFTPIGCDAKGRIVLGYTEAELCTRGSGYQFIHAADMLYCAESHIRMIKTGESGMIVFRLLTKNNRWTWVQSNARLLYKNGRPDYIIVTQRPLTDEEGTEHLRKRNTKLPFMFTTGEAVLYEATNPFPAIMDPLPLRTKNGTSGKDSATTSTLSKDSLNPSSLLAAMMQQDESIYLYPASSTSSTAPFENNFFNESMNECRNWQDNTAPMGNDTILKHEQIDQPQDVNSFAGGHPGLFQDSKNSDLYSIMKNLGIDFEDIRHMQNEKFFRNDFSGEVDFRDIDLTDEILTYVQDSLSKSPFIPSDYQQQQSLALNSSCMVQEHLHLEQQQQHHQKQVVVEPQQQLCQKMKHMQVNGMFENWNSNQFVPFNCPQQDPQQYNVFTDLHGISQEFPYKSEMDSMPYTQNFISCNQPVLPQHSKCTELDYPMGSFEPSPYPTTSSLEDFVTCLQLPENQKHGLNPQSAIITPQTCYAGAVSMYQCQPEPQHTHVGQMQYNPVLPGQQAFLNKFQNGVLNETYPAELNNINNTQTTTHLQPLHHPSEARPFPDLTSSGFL
Experimental: Incubations were performed in four technical replicates.

[1] = test system: PXR occupancy of CYP3A4 and MDR1 promoter; experiment: Chromatin immunoprecipitation (ChIP) in PXR-transfected LS174T cells; conditions: 10 μM; relative to DMSO = 1; each column a repeat experiment (Fig 1d)
Experimental: LS174T cells were transfected with pSG5‐PXR (2 μg/plate/1 × 10^7 cells). […] Briefly, cells were chemically cross‐linked with formaldehyde in culture media for 15 min at room temperature. […] Cells were rinsed twice with cold PBS (phosphate‐buffered saline) (pH 7.5) and scraped in PBS supplemented with PIC (protease inhibitor cocktail).
Cell pellets were collected and immediately resuspended in immunoprecipitation (IP) buffer (150 mM NaCl (sodium chloride), 50 mM Tris–HCl at pH 7.5, 5 mM EDTA (ethylenediaminetetraacetic acid), 0.5% NP‐40, 1% Triton X‐100). The nuclei were centrifuged at 12,000 × g for 1 min and resuspended in fresh IP buffer. Chromatin was sheared by sonication to an average size of 0.2‐0.9 kb. Lysates were cleared by centrifugation at 12,000 × g for 10 min. […] 10% (wt/vol) Chelex 100 was added to the beads followed by boiling of the suspension and centrifugation at 12,000 × g for 1 min to obtain chromatin.
Purified chromatin DNA was used to perform RT–qPCR. […] Data were analyzed using SDS 2.2.1 program (ABI Biotechnology).

PXR [2] = molecular target: T2, PXR (Homo sapiens, UniProt O75469); experiment: PXR reporter (p3A4-luc luciferase) assay in LS180 cells transiently transfected with wild-type PXR; conditions: for FOLD INDUCTION of PXR reporter luciferase activity: 24 h, over UT
T2 sequence (O75469 1-434): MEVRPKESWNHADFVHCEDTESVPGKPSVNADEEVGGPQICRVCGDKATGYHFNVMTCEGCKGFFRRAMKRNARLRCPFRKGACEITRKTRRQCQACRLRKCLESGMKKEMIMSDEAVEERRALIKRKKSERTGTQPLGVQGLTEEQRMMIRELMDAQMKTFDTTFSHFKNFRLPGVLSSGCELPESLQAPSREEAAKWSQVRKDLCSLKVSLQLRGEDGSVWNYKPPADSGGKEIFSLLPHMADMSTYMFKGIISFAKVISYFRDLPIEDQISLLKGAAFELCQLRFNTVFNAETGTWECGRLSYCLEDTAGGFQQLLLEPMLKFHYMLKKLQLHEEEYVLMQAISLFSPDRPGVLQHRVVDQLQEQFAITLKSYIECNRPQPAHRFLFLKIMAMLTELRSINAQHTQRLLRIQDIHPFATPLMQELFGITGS
Experimental: Incubations were performed in four technical replicates. After the treatments, cells were lysed and luciferase activity was measured on Tecan Infinite M200 Pro plate reader (Schoeller Instruments, Prague, Czech Republic). The data are expressed as fold induction ± SD of luciferase activity over the control cells (agonistic mode—in the absence of a model ligand) or as a percentage of maximal activation ± SD (antagonistic mode—in the presence of a model ligand). […] For all the transfection experiments, specifically multiplexed transfections, the control wells were mock‐transfected ([…]). However, to exclude non‐specific binding of PXR (or other factors) upstream of the luciferase gene within non‐PXR‐binding elements, we performed pilot experiments in different cell passages (P11, P14, and P17) of LS174T cells using a mock luciferase plasmid (luciferase not containing an upstream PXR‐binding element of the CYP3A4 promoter).

IL-8 mRNA = experiment: TNF-α-induced IL-8 mRNA in human colonic enteroids (Calgary Protocol); format: cell-based; conditions: 10 μM, pair-wise vs DMSO
Experimental: Samples were immediately processed to yield isolated colonic crypts as previously described (Fernando et al, 2017). Isolated colonic crypts were embedded in Matrigel® (Corning) and cultured in Intesticult^tm Organoid Growth Media. Human organoids were pretreated for 6 h with either FKK5, FKK6, FKK9, or vehicle (DMSO), then stimulated with human recombinant TNF‐alpha in the presence of either treatment for an additional 12 h. Organoids were washed in PBS, disrupted in Tri Reagent® (Sigma, Oakville, ON, CAN), and frozen at −80°C. After thawing, chloroform was added, samples were centrifuged for 15 min, and the resulting aqueous phase was then added to equal volumes of 70% ethanol and further processed using the RNeasy mini kit (Qiagen). cDNA was synthesized using the QuantiTect RT kit (Qiagen) according to the manufacturer's protocol. Resulting cDNA was used as a template for quantitative real‐time PCR using Perfecta SYBR Green FastMix with ROX (QuantaBio). PCR and analysis were performed using a StepOne PCR System (Applied Biosystems). Gene expression was calculated relative to β‐actin expression and expressed as fold change of control. The primers used were as follows: Human®‐Actin (NM_001101), Human CYP3A4 (NM_001202855), and Human ABCB1 (NM_000927).

PXR [3] = molecular target: T2, PXR; experiment: Ligand efficiency metric (LEM) analysis; parameters: expressed in transfected cells; host or cells: LS180; conditions: NSEI-nBEI plane, from PXR reporter Emax
Source text: Ligand efficiency metric (LEM) analysis for FKK ligand efficiency. The ligand efficiency metrics (LEMs) of compounds FKK1 to 10 and FKK999 as a reference compound, have been analyzed by using a web tool named AtlasCBS which represents LEMs as variables for a Cartesian mapping of chemico-biological space (CBS). In particular, Cartesian planes combine three critical variables in drug discovery (affinity, size, and polarity) into easily interpretable ‘efficiency planes’ useful to guide a drug discovery process. In the Cartesian plane, each target:ligand pair appears as a point whose coordinates are given by pairs of values derived from the affinity of the ligand toward the target (Ki or equivalent) in relation to its size (MW or number of non-hydrogen atoms NHA), and its polarity (expressed as Polar Surface Area, PSA, or number of polar atoms, NPOL = count of N + O). The first one represents a size-related LEM and the second a polarity-related LEM. Consistently, compounds that correspond to marketed drugs typically occupy the upper right quadrant of the plots (‘Nort h-East’ direction, NE), where both the efficiency -pe r-size and efficiency -per-polarity are optimized 1,2.
Our results are represented in the efficiency plane NS EI-nBEI where:
NSEI = –log Ki/NPOL (N, O) = pKi/NPOL (N, O)
As a measure of activity of the above compounds, the reciprocal of the percentage efficacy values (1/Efficacy [%]) obtained in the PXR-dependent luciferase activity test (Emax values from Fig. 1) were used in lieu of the affinity constants (Ki in the above equations). FKK4 would appear as the most efficient compound since it is placed in the NE panel (GL, unpublished observations). However, this congener might suffer from metabolic liability with its N-protecting group possibly generating toxic aldehydes by oxidative cleavage in vivo. Unambiguously, the two most efficient compounds besides FKK4 are FKK5 and FKK6 which were therefore considered suitable lead compounds, as al so

## c1ccc2[nH]ccc2c1 [indole]
rats
  LD50: ~ 1 g/kg

## CCOCn1c(C(O)(Cc2cc3ccccc3[nH]2)c2ccncc2)cc2ccccc21 (racemic) [FKK9]
AhR; 10 μM
  AhR activation: > 100 fold
AhR; 1 nM
  FOLD INDUCTION (AZ-AHR luciferase): 0.6 fold
AhR; 10 nM
  FOLD INDUCTION (AZ-AHR luciferase): 0.4 fold
AhR; 100 nM
  FOLD INDUCTION (AZ-AHR luciferase): 1.3 fold
AhR; 1µM
  FOLD INDUCTION (AZ-AHR luciferase): 15.9 fold
AhR; 10 µM
  FOLD INDUCTION (AZ-AHR luciferase): 584.9 fold
[1]
  CYP3A4 Fold Expression (2-ΔΔCt): 0.943 and 0.9893 and 1.172 and 1.777
PXR [2]; 1 nM
  aver (mean luciferase signal of H1-H4): 4233.7
  FOLD INDUCTION of PXR reporter luciferase activity: 1.1 fold
PXR [2]; 10 nM
  aver (mean luciferase signal of H1-H4): 4676.8
  FOLD INDUCTION of PXR reporter luciferase activity: 1.2 fold
PXR [2]; 100 nM
  aver (mean luciferase signal of H1-H4): 5944.0
  FOLD INDUCTION of PXR reporter luciferase activity: 1.6 fold
PXR [2]; 1 uM
  aver (mean luciferase signal of H1-H4): 19145.3
  FOLD INDUCTION of PXR reporter luciferase activity: 5.0 fold
PXR [2]; 10 uM
  aver (mean luciferase signal of H1-H4): 98175.8
  FOLD INDUCTION of PXR reporter luciferase activity: 25.8 fold
PXR [2]; 25 uM
  aver (mean luciferase signal of H1-H4): 68593.5
  FOLD INDUCTION of PXR reporter luciferase activity: 18.0 fold
IL-8 mRNA
  TNF-α-induced IL-8 mRNA levels: did not show significant effects

## CC#CC(O)(c1ccncc1)c1cc2ccccc2n1COCC (stereo not shown) [FKK4]
AhR
  AhR activation (in words): variable degrees of dose‐dependent AhR activation profiles
AhR; 1 nM
  FOLD INDUCTION (AZ-AHR luciferase): 0.8 fold
AhR; 10 nM
  FOLD INDUCTION (AZ-AHR luciferase): 0.644 fold
AhR; 100 nM
  FOLD INDUCTION (AZ-AHR luciferase): 0.8 fold
AhR; 1µM
  FOLD INDUCTION (AZ-AHR luciferase): 1.2 fold
AhR; 10 µM
  FOLD INDUCTION (AZ-AHR luciferase): 7.1 fold
PXR [2]; 1 nM
  aver (mean luciferase signal of H1-H4): 4365.5
  FOLD INDUCTION of PXR reporter luciferase activity: 1.4 fold
PXR [2]; 10 nM
  aver (mean luciferase signal of H1-H4): 4279.3
  FOLD INDUCTION of PXR reporter luciferase activity: 1.3 fold
PXR [2]; 100 nM
  aver (mean luciferase signal of H1-H4): 5499.3
  FOLD INDUCTION of PXR reporter luciferase activity: 1.7 fold
PXR [2]; 1 uM
  aver (mean luciferase signal of H1-H4): 21392.8
  FOLD INDUCTION of PXR reporter luciferase activity: 6.7 fold
PXR [2]; 10 uM
  aver (mean luciferase signal of H1-H4): 102793.8
  FOLD INDUCTION of PXR reporter luciferase activity: 32.2 fold
PXR [2]; 25 uM
  aver (mean luciferase signal of H1-H4): 122639.5
  FOLD INDUCTION of PXR reporter luciferase activity: 38.4 fold
PXR [3]
  LEM analysis prediction: efficient agonist
